The Bradley open melting point set (2014)
“And” between values parts separate entries of the source, which are not always exact repeats. Equal entries are not always repeated. Structures can show the parent of a compound that is named as a salt.

Going from O=C(C1CCCCC1)N1CC(=O)N2CCc3ccccc3C2C1 (stereo unspecified) [Praziquantel] to C1CC[C@H]2CCCC[C@H]2C1 [cis-decahydronaphthalene], the melting point falls from 136 °C to -43 °C.

Going from CCCCCCCCCCCC(C)=O [2-tridecanone] to CCCCCCC(O)CCCCCCCCCCC(=O)O (stereo unspecified) [12-Hydroxyoctadecanoic acid], the melting point rises from 30 °C to 80.5 °C.

Compared with CC12CCC(C1(C)C)C(CCCc1ccccc1)(C1(CCCc3ccccc3)C(=O)C3(C)CCC1C3(C)C)C2=O (stereo unspecified), O=C(C[C@H](NC(=O)OCc1ccccc1)C(=O)O)OCc1ccccc1 [N-benzyloxycarbonyl-l-aspartic acid 4-benzyl ester] is lower in melting point: 162 °C for the first, 106 °C for the second.

First: CCCCCCC=O [Heptanal]
Second: CCCCCCS [1-hexanethiol]
The melting point of the first is higher: -43 °C for the first, -80 °C for the second.

Going from CC(C)[C@H](N)C(=O)O [L-valine] to CC(C)C(=O)O [2-methylpropanoic_acid], the melting point falls from 315 °C to -46 °C.

First: Cc1cc(C)c(CC#N)c(C)c1 [mesitylacetonitrile]
Second: Cc1cc(C)c(CC(=O)O)c(C)c1 [mesitylacetic acid]
The melting point of the first is lower: 79 °C for the first, 169 °C for the second.

Going from CC(C)(Oc1ccc(Cl)cc1)C(=O)O [2-(4-chlorophenoxy)isobutyric acid] to CCOC(=O)c1ccc(O)cc1 [ethyl 4-hydroxybenzoate], the melting point falls from 120 °C to 117 °C.

Compared with [C-]#[N+]CS(=O)(=O)c1ccc(C)cc1 [p-toluenesulfonylmethyl isocyanide], Cc1ccc(S(=O)(=O)CC(=O)O)cc1 [p-toluenesulfonylacetic acid] is higher in melting point: 112 °C for the first, 118 °C for the second.

Going from NC(N)=S [Thiourea] to Cc1ccc(N)cc1N [2,4-diaminotoluene], the melting point falls from 176 °C to 99 °C.

First: COc1cccc(C#N)c1OC [2,3-dimethoxybenzonitrile]
Second: COc1ccc(C)cc1O [2-methoxy-5-methylphenol]
The melting point of the first is higher: 46 °C for the first, 37 °C for the second.

Compared with COC(=O)/C=C/C(=O)OC [dimethyl fumarate], COc1ccc(SCC(=O)O)cc1OC [(3,4-dimethoxyphenylthio)acetic acid] is lower in melting point: 104 °C for the first, 102 °C for the second.

First: N#Cc1cccc(C(=O)O)c1 [3-cyanobenzoic_acid]
Second: CC(=O)c1ccc(C#N)cc1 [4-acetylbenzonitrile]
The melting point of the first is higher: 223 °C for the first, 58 °C for the second.

First: O=C(Cc1ccc(-c2ccccc2)cc1)Nc1ccccn1 [difenpiramide]
Second: c1ccc(-c2ccc(-c3ccccc3)cc2)cc1 [1,1':4',1''-Terphenyl]
The melting point of the first is lower: 122 °C for the first, 213 °C for the second.

Going from C=C(CC)CC [2-ethyl-1-butene] to CCOc1cc(C)ccc1O [2-ethoxy-4-methylphenol], the melting point rises from -132 °C to 29 °C.

Compared with Nc1cc(C(F)(F)F)ccc1[N+](=O)[O-] [2-nitro-5-(trifluoromethyl)aniline], O=[N+]([O-])c1ccc(F)c([N+](=O)[O-])c1 [1-fluoro-2,4-dinitrobenzene] is lower in melting point: 100 °C for the first, 27 °C for the second.

Going from CCc1ccc(B(O)O)cc1 [4-ethylbenzeneboronic acid] to OB(O)c1ccc(OCc2ccccc2)cc1 [4-benzyloxybenzeneboronic acid], the melting point rises from 152 °C to 196 °C.

Compared with Cc1ccc(-c2nc(-c3ccccc3)cs2)cc1 [4-phenyl-2-(p-tolyl)thiazole], Oc1ccccc1-c1nc2ccccc2s1 [2-(2-hydroxyphenyl)benzothiazole] is higher in melting point: 58 °C for the first, 132 °C for the second.

Going from O[C@@H]1CCC[C@@H]1O [(1R,2S)-Cyclopentane-1,2-diol] to OC1CCCCC1 [Cyclohexanol], the melting point falls from 32.5 °C to 21 °C.

First: CNC[C@H](O)[C@@H](O)[C@H](O)[C@H](O)CO [N-methyl-D-glucamine]
Second: CC[C@H](C)C(=O)O[C@H]1C[C@H](O)C=C2C=C[C@H](C)[C@H](CC[C@@H](O)C[C@@H](O)CC(=O)O)[C@H]21 [Pravastatin]
The melting point of the first is lower: 130 °C for the first, 326 °C for the second.

First: COc1ccc([C@@H]2CC(=O)c3c(O)cc(O)cc3O2)cc1O [hesperetin]
Second: Cc1cc(O)ccc1O [2-methylhydroquinone]
The melting point of the first is higher: 228 °C for the first, 129 °C for the second.

Compared with COc1cc(C(=O)NS(=O)(=O)c2ccccc2C)ccc1Cc1cn(C)c2ccc(NC(=O)OC3CCCC3)cc12 [Zafirlukast], COc1cc(NS(=O)(=O)c2ccc(N)cc2)nc(OC)n1 [sulfadimethoxine] is higher in melting point: 139 °C for the first, 204 °C for the second.

Going from O=C(O)CNC(=O)c1ccccc1 [hippuric acid] to NNS(=O)(=O)c1ccccc1 [benzenesulfonyl hydrazide], the melting point falls from 190 °C to 103 °C.

Going from Nc1cccc(Cc2cccc(N)c2)c1 [3,3'-diaminodiphenylmethane] to [O-][n+]1ccc(OCc2ccccc2)cc1 [4-benzyloxypyridine n-oxide], the melting point rises from 82 °C to 174 °C.

First: CC1=NCCN1 [2-methyl-2-imidazoline]
Second: Cc1ccc[nH]c1=O [3-methyl-2-pyridone]
The melting point of the first is lower: 100 °C for the first, 140 °C for the second.

First: CC(=O)Nc1ccc(C(C)C)cc1 [4'-isopropylacetanilide]
Second: CC(=O)Nc1cccc2c([N+](=O)[O-])cccc12 [N-(5-nitronaphthalen-1-yl)acetamide]
The melting point of the first is lower: 104 °C for the first, 218 °C for the second.

First: O=Cc1ccc(C=O)cc1 [terephthaldicarboxaldehyde]
Second: COC(=O)c1ccc(C=O)cc1 [methyl 4-formylbenzoate]
The melting point of the first is higher: 116 °C for the first, 61 °C for the second.

Going from COC(C)(C)C [2-Methoxy-2-methylpropane] to C/C=C\C(C)(C)C [4,4-dimethyl-cis-2-pentene], the melting point falls from -109 °C to -135 °C.

First: O=[N+]([O-])c1cccc(CCl)c1 [3-nitrobenzyl_chloride]
Second: O=[N+]([O-])c1ccccc1 [nitrobenzene]
The melting point of the first is higher: 47 °C for the first, 6 °C for the second.

First: Clc1cc(Cl)cc(-c2nnn[nH]2)c1 [5-(3,5-dichlorophenyl)-1h-tetrazole]
Second: Clc1cccc(Cl)c1Br [1-bromo-2,6-dichlorobenzene]
The melting point of the first is higher: 207 °C for the first, 66 °C for the second.

Compared with O=Cc1ccc(O)c(O)c1 [3,4-Dihydroxybenzaldehyde], O=Cc1ccc(B(O)O)cc1Cl [3-chloro-4-formylbenzeneboronic acid] is higher in melting point: 154 °C for the first, 212 °C for the second.

Compared with CCC1OC(=O)C(C)C(OC2CC(C)(OC)C(O)C(C)O2)C(C)C(OC2OC(C)CC(N(C)C)C2O)C(C)(O)CC(C)C(=O)C(C)C(O)C1(C)O (stereo unspecified), C[C@]12C=CC(=O)C=C1CC[C@@H]1[C@@H]2C(=O)C[C@@]2(C)[C@H]1CC[C@]2(O)C(=O)CO [Prednisone] is higher in melting point: 135 °C for the first, 234 °C for the second.

Compared with Cc1ccc(C)c(Br)c1 [2-bromo-p-xylene], Cc1ccc(CO)cc1 [4-methylbenzyl_alcohol] is higher in melting point: 10 °C for the first, 61 °C for the second.

Compared with Nc1cc2ccccc2oc1=O [3-aminocoumarin], O=C1OC(=O)c2ccccc21 [phthalic anhydride] is lower in melting point: 136 °C for the first, 132 °C for the second.

First: CC(C)(S)[C@@H](N)C(=O)O [Penicillamine]
Second: O=C(O)C=Cc1ccco1 [b-2-Furylacrylic Acid]
The melting point of the first is higher: 198 °C for the first, 133 °C for the second.

Compared with O=C(NCCCCc1ccccc1)c1cc([N+](=O)[O-])cc([N+](=O)[O-])c1 [benzamide, 3,5-dinitro-N-(4-phenylbutyl)-], O=[N+]([O-])c1ccc(-c2ccc([N+](=O)[O-])cc2Cl)cc1 [2-chloro-4,4'-dinitrobiphenyl] is lower in melting point: 166 °C for the first, 145 °C for the second.

Going from c1ccc2cc(C3CNCCN3)ccc2c1 (stereo unspecified) [2-(2-naphthyl)piperazine] to CN1CCN(C2=Nc3cc(Cl)ccc3Nc3ccccc32)CC1 [clozapine], the melting point rises from 102 °C to 184 °C.

First: [C-]#[N+]c1cnn(-c2ncnc3c2cnn3C)c1/C=C/OCC
Second: O=C(NC/1=N/C(=O)c2ncn(c2N\1)COCCO)C [N-Acetylacyclovir]
The melting point of the first is lower: 155 °C for the first, 217 °C for the second.

Compared with Cc1ncc([N+](=O)[O-])n1C [dimetridazole], COc1cc(C=O)c([N+](=O)[O-])cc1OC [6-nitroveratraldehyde] is lower in melting point: 140 °C for the first, 133 °C for the second.

Compared with CC(C)(C)c1ccc(-c2ccc(Br)cc2)cc1 [4-bromo-4'-tert-butylbiphenyl], O=C(O)c1ccc(-c2ccc(O)cc2)cc1 [4'-hydroxybiphenyl-4-carboxylic acid] is higher in melting point: 142 °C for the first, 294 °C for the second.

Going from CC1(O)CCCCC1 [1-methylcyclohexanol] to C1=CCCCC1 [Cyclohexene], the melting point falls from 26 °C to -104 °C.

Going from CC12CCC(=O)C=C1CCC1C2CCC2(C)C(O)CCC12 (stereo unspecified) [testosterone] to CC(C)[C@@H](C)/C=C/[C@@H](C)[C@H]1CC[C@H]2C3=CC=C4C[C@@H](O)CC[C@]4(C)[C@H]3CC[C@]12C [(3beta,22E)-Ergosta-5,7,22-trien-3-ol], the melting point rises from 153 °C to 160 °C.

Compared with O=C(C=Cc1ccccc1)C=Cc1ccccc1 [1,5-Diphenylpenta-1,4-dien-3-one], CC(C(=O)O)c1ccc(-c2ccccc2)c(F)c1 (stereo unspecified) [Flurbiprofen] is lower in melting point: 111 °C for the first, 110 °C for the second.

Going from CN1CCCN(C)CCN(C)CCCN(C)CC1 [1,4,8,11-tetramethyl-1,4,8,11-tetraazacyclotetradecane] to O=[N+]([O-])c1ccc(N2CCOCC2)cc1 [4-(4-nitrophenyl)morpholine], the melting point rises from 35 °C to 150 °C.

First: COc1c(C)cc(B(O)O)cc1C [4-methoxy-3,5-dimethylbenzeneboronic acid]
Second: Cc1ccc(C(=O)CCC(=O)O)cc1 [3-(4-methylbenzoyl)propionic acid]
The melting point of the first is higher: 237 °C for the first, 126 °C for the second.

Compared with OCCCCCCCCO [1,8-octanediol], CC1(C)C2CCC1(C)C(O)/C2=C\CC(=O)O (stereo unspecified) is lower in melting point: 60 °C for the first, 52 °C for the second.

Going from CC(=O)OCC1OC(Oc2ccc(C)cc2)C(OC(C)=O)C(OC(C)=O)C1OC(C)=O (stereo unspecified) [4-methylphenyl 2,3,4,6-tetra-O-acetylhexopyranoside] to O=[N+]([O-])c1ccc(/C=C/c2ccc(O)cc2)cc1 [4-hydroxy-4'-nitrostilbene], the melting point rises from 126 °C to 207 °C.

First: Cl/C=C/Cl [trans-1,2-dichloroethylene]
Second: Nc1cccc2c(=O)[nH][nH]c(=O)c12 [5-Amino-2,3-dihydrophthalazine-1,4-dione]
The melting point of the first is lower: -50 °C for the first, 319 °C for the second.

Nc1ccc(F)cc1F [2,4-Difluoroaniline] showed a melting point of -7.5 °C.

For CC(C)(CO)CO [2,2-dimethyl-1,3-propanediol], the melting point was 128 °C and 126 °C.
